The conditions of series [1]: cited from earlier work.
Series [2] is described as follows: Physicochemical properties of tazarotene.
The test system of series [3] is retinoic acid receptor (RAR) family: RARα, RARβ, and RARγ. The following applies: cited from earlier work.

In brackets after ≈: the same amount, converted by molar mass. Like-named read-outs stand apart in the source and are kept apart here.

As a reminder, the solubility is the concentration that dissolves in the medium under given conditions. Turning to `CCOC(=O)c1ccc(C#Cc2ccc3c(c2)C(C)(C)CCS3)nc1` [Tazarotene, Ethyl 6-[(4,4-dimethylthiochroman-6-yl)ethynyl]nicotinate], in series [1], the pKa was 1.5^(1). Further, the “crystalline drug by DSC or PXRD analysis” value in series [2] (at 1% or at 4% in Compritol) is recorded as “no crystalline drug was detected”. The solubility in series [2] (isopropyl myristate, oil or lipid, read-out: Solubility in isopropyl myristate) is 7400 µg/mL (≈ 21.1 mM); in series [2] (water, read-out: Solubility in water) it was less than 1 µg/mL.

In the case of `CC1(C)CCSc2ccc(C#Cc3ccc(C(=O)O)cn3)cc21` [Tazarotenic acid], in series [3], the “binding to RARα, RARβ and RARγ” value is listed as “binds to all three members”; the “selectivity among RARs” value is “relative selectivity for RARβ, and RARγ”.

The values above are taken from patent US20150209343A1, “TOPICAL DERMAL COMPOSITIONS” (Allergan, Inc., priority 2014, published 2015).
